Reference: patent publication US11384381B2, “Reaction accelerating agent” (Kikkoman Corporation, priority 2016, dated 2022)

Key:
Assay type in all cases: biochemical
[1] = system: fructosyl amino acid oxidase (FAOD-E); assay: Acceleration of fructosyl valine detection reaction with small amount of fructosyl amino acid oxidase (Example 9); conditions: 0.04% (w/v) compound, 2.14 U/ml FAOD-E; for effect of accelerating fructosyl valine detection reaction: versus not added; for Degree of progression of reaction (%) after 7.5 minutes / Degree of progression of reaction (%) after 10 minutes: fructosyl valine detection reaction, ΔA/ΔA100%; for Degree of progression of reaction (%) after 7.5 minutes: 2.5 minutes after addition of second reagent, not added: 29; for Degree of progression of reaction (%) after 10 minutes: 5 minutes after addition of second reagent, not added: 48
Description: Next, in this Example, the degree of acceleration of fructosyl valine detection reaction by the compound of the present invention was determined using a small amount of fructosyl amino acid oxidase.
A reagent for fructosyl valine measurement having the following composition was prepared, and the measurement of fructosyl valine was carried out using Bio Majesty JCA-BM1650 (manufactured by JEOL Ltd.).
32 μM fructosyl valine (manufactured by Kikkoman Biochemifa Company)
30 mM MOPS-NaOH buffer solution, pH 8.0
0.2% (v/v) NYMEEN F-215 (manufactured by NOF Corp.)
(§1) 10 U/ml peroxidase PEO-301 (Toyobo Co., Ltd.)
(§2) 0.023 mM 10-(carboxymethylaminocarbonyl)-3,7-bis(dimethylamino)phenothiazine sodium (DA-67, manufactured by Wako Pure Chemical Industries, Ltd.)
(§3) 0.04% (w/v) of the compound of Comparative Example 2, any one compound of the present invention, or compound-free (Comparative Example 1) ion-exchange water as shown in Table 1
10 mM MOPS-NaOH buffer solution, pH 8.0
2.14 U/ml FAOD-E (manufactured by Kikkoman Biochemifa Company)
8 μl of the sample was added to 96 μl of the first reagent-C, and the mixture was incubated at 37° C. for 5 minutes. Then, 24 μl of the second reagent-F was added thereto, and the quantitative reaction of hydrogen peroxide resulting from the oxidation of fructosyl valine was allowed to progress at 37° C. for 5 minutes. The absorbance (A694 and A751) of the reaction solution for light at wavelengths of 694 nm and 751 nm was measured over time for 10 minutes after the mixing of the sample with the first reagent-C to determine the value of subtraction of A751 from A694, i.e., the value A694/751. Subsequently, ΔA was calculated by subtracting, from A694/751, the value of (104/128) times A694/751 4.8 minutes after the mixing of the sample with the first reagent-C. Incidentally, 5 minutes after the mixing of the sample with the first reagent-C represents the time immediately before the addition of the second reagent-F.
(§4) Next, ΔA calculated in this Example was divided by ΔA100% defined in Example 8 to calculate the degree of progression of fructosyl valine detection reaction. The degree of progression of fructosyl valine detection reaction 7.5 and 10 minutes after the mixing of the sample with the first reagent-C (in other words, 2.5 and 5 minutes after the addition of the second reagent-F) is shown in Table 6.

[2] = system: fructosyl peptide oxidase (FPOX-CET); assay: Fructosyl valyl histidine detection reaction completed with excess fructosyl peptide oxidase (Example 6); conditions: 0.04% (w/v) compound, 4.8 U/ml FPOX-CET (excess), 32 μM fructosyl valyl histidine, pH 7.0, 37° C.; for ΔA9 min: change in A694-A751 9 minutes after mixing; for ΔA10 min: change in A694-A751 10 minutes after mixing, defined as ΔA100%
Description: In this Example the amount of change in absorbance is determined when the detection reaction of the substrate fructosyl valyl histidine was completed using an excess amount of fructosyl peptide oxidase (FPOX-CET), which is an oxidase.
A reagent for fructosyl valyl histidine measurement having the following composition was prepared, and the measurement of fructosyl valyl histidine using fructosyl peptide oxidase was carried out using Bio Majesty JCA-BM1650 (manufactured by JEOL Ltd.).
(§5) 32 μM fructosyl valyl histidine (manufactured by Kikkoman Biochemifa Company)
(§6) 30 mM MOPS-NaOH buffer solution, pH 7.0
(§7) 0.2% (v/v) Triton X-100 (manufactured by Wako Pure Chemical Industries, Ltd.)
as §1, §2, §3
(§8) 10 mM MOPS-NaOH buffer solution, pH 7.0
4.8 U/ml FPOX-CET (manufactured by Kikkoman Biochemifa Company)
8 μl of the sample was added to 96 μl of the first reagent-B, and the mixture was incubated at 37° C. for 5 minutes. Then, 24 μl of the second reagent-C was added thereto, and the quantitative reaction of hydrogen peroxide resulting from the oxidation of fructosyl valyl histidine was allowed to progress at 37° C. for 5 minutes. The absorbance (A694 and A751) of the reaction solution for light at wavelengths of 694 nm and 751 nm was measured over time for 10 minutes after the mixing of the sample with the first reagent-B to determine the value of subtraction of A751 from A694, i.e., the value A694/751. Subsequently, ΔA was calculated by subtracting, from […], the value of (104/128) times A694/751 4.8 minutes after the mixing of the sample with the first reagent-B. Incidentally, 4.8 minutes after the mixing of the sample with the first reagent-B represents the time immediately before the addition of the second reagent-C. ΔA 9 minutes and 10 minutes after the mixing of the diluted sample with the first reagent-B (ΔA9min and ΔA10min) are shown in Table 3.
In other words, it can be recognized that the quantitative reaction of fructosyl valyl histidine, i.e., the quantitative reaction of hydrogen peroxide resulting from the oxidation of fructosyl valyl histidine, was completed in 10 minutes after the mixing of the diluted sample with the first reagent-B. Accordingly, in Examples 6 and 7, ΔA10min in each Comparative Example or the present invention was defined as ΔA when 100% of the quantitative reaction of […] progressed under each condition (ΔA100%).

[3] = system: fructosyl peptide oxidase (FPOX-CET); assay: Acceleration of fructosyl valyl histidine detection reaction with small amount of fructosyl peptide oxidase (Example 7); conditions: 0.04% (w/v) compound, 0.48 U/ml FPOX-CET; for effect of accelerating the fructosyl valyl histidine detection reaction: versus not added; for Degree of progression of reaction (%) after 7.5 minutes / Degree of progression of reaction (%) after 10 minutes: fructosyl valyl histidine detection reaction, ΔA/ΔA100%; for Degree of progression of reaction (%) after 7.5 minutes: 2.5 minutes after addition of second reagent, not added: 57; for Degree of progression of reaction (%) after 10 minutes: 5 minutes after addition of second reagent, not added: 81
Description: Next, in this Example, the degree of acceleration of fructosyl valyl histidine detection reaction by the compound of the present invention was determined using a small amount of fructosyl peptide oxidase.
A reagent for fructosyl valyl histidine measurement having the following composition was prepared, and the measurement of fructosyl valyl histidine was carried out using Bio Majesty JCA-BM 1650 (manufactured by JEOL Ltd.).
as §5, §6, §7, §1, §2, §3, §8
0.48 U/ml FPOX-CET (manufactured by Kikkoman Biochemifa Company)
8 μl of the sample was added to 96 μl of the first reagent-B, and the mixture was incubated at 37° C. for 5 minutes. Then, 24 μl of the second reagent-D was added thereto, and the quantitative reaction of hydrogen peroxide resulting from the oxidation of fructosyl valyl histidine was allowed to progress at 37° C. for 5 minutes. The absorbance (A694 and A751) of the reaction solution for light at wavelengths of 694 nm and 751 nm was measured over time for 10 minutes after the mixing of the sample with the first reagent-B to determine the value of subtraction of A751 from A694. i.e., the value A694/751. Subsequently, ΔA was calculated by subtracting, from A694/751, the value of (104/128) times A694/751 4.8 minutes after the mixing of the sample with the first reagent-B. Incidentally, 5 minutes after the mixing of the sample with the first reagent-B represents the time immediately before the addition of the second reagent-D.
as §4, with “[…]” for “ΔA100%”, “6” for “8”, “valyl histidine” for “valine”, “reagent-B” for “reagent-C”, “reagent-D)” for “reagent-F)”, “4.” for “6.”

| Compound | effect of accelerating fructosyl valine detection reaction [1] | Degree of progression of reaction (%) after 7.5 minutes [1] | Degree of progression of reaction (%) after 10 minutes [1] | ΔA9 min [2] | ΔA10 min [2] | effect of accelerating the fructosyl valyl histidine detection reaction [3] | Degree of progression of reaction (%) after 7.5 minutes [3] | Degree of progression of reaction (%) after 10 minutes [3] |
| --- | --- | --- | --- | --- | --- | --- | --- | --- |
| O=C([O-])c1cc(N=Nc2ccc([N+](=O)[O-])cc2)ccc1O.[Na+] [Mordant Orange 1] | effect of accelerating fructosyl valine detection reaction | 37% | 59% | – | – | – | – | – |
| O=C(O)c1cc(N=Nc2ccc3cc(S(=O)(=O)O)ccc3c2)ccc1O.[Na] [Chrome Yellow] | effect of accelerating fructosyl valine detection reaction | 43% | 68% | 0.064 | 0.064 | effect of accelerating the fructosyl valyl histidine detection reaction | 62% | 86% |
| COc1cc(N=Nc2ccc(N)cc2)c(C)cc1N [Disperse Diazo Black 3BF] | effect of accelerating fructosyl valine detection reaction | 86% | 89% | – | – | – | – | – |
| COc1cc(N=Nc2cccc(S(=O)(=O)[O-])c2)ccc1NC(=O)Nc1ccc(N=Nc2ccc(O)c(C(=O)[O-])c2)cc1.[Na+].[Na+] [Direct Yellow 44] | – | – | – | 0.043 | 0.043 | effect of accelerating the fructosyl valyl histidine detection reaction | 66% | 88% |
| O=C([O-])c1cc(N=Nc2cccc([N+](=O)[O-])c2)ccc1O.[Na+] [Alizarin Yellow GG] | effect of accelerating fructosyl valine detection reaction | 38% | 62% | – | – | – | – | – |
| Cc1nn(-c2cc(S(=O)(=O)[O-])ccc2Cl)c(O)c1N=Nc1ccccc1.[Na+] [Acid Yellow 34] | – | – | – | 0.032 | 0.033 | effect of accelerating the fructosyl valyl histidine detection reaction | 62% | 86% |
| Xylene Fast Yellow 2G | – | – | – | 0.027 | 0.027 | effect of accelerating the fructosyl valyl histidine detection reaction | 63% | 96% |
